Assay results taken from patent US9533017B2, “Saccharomyces cerevisiae yeast for preventing and/or treating vaginal mycoses” (LESAFFRE ET COMPAGNIE, priority 2012, dated 2017).
“Also recorded” adds a separate entry of the source.

What was measured:
[1] = tested on: Candida albicans; assay: Rat model of vaginal candidosis: viable C. albicans in the vaginal mucosa (cervico-uterine smears on Chrom-Agar plates); type: in vivo; details: for mean growth of the colonies of C. albicans on Chrom-Agar plates (smears): fluconazole 50 μg intravaginal 1 h, 24 h, 48 h after infection
Method: (§1) Ovariectomized female rats (Sprague-Dawley) aged from 3 to 5 weeks are purchased from Janvier Laboratoires, France. They are maintained under pseudo-estrus by a subcutaneous injection of estradiol benzoate (Sigma, estradiol benzoate resuspended in sesame oil; 0.5 mg/animal) every other day (i.e. three times per week) up to the end of the experiment.
(§2) A week after the first injection of estradiol inducing pseudo-estrus, the female rats are infected with C. albicans. Infection with C. albicans corresponds to a single intravaginal administration of the C. albicans strain at a concentration of 10^7 CFU.
(§3) Fluconazole is administered by the intravaginal route at a dose of 50 μg per rat, respectively 1 h, 24 h and 48 h after infection with C. albicans. […]
The number of colonies of C. albicans adhering to the vaginal mucosa is evaluated every two days after infection with Candida albicans and up to the end of the experiment (3 weeks later) by taking a cervico-uterine smear (with a calibrated loop) and by spreading on Chrom-Agar plates (a growth medium specific and selective for Candida), 5 vaginal samples being combined.
The viable colonies of Candida albicans are counted after two days of culture at 30° C. on a selective medium (Chrom-Agar plates, BD).
Another way of expressing the results is to calculate the area under the curve (AUC) between day 2 and day 12, which represents a quantitative marker of the presence of viable C. albicans in the vaginal mucosa of rats receiving or not receiving fluconazole.

[2] = tested on: Candida albicans; assay: as above; type: in vivo; set-up: AUC values (D2 to D13): unit not given beside the values; details: fluconazole 50 μg 1 h, 24 h, 48 h after infection
[3] = tested on: Candida albicans; assay: Cytologic analysis of vaginal washes (MGG staining), inflammation; type: in vivo, rat
Method: The smears are prepared from a cervical sample and from washes.
Preparations of cells in a thin layer on slides are prepared from combined washes in each group of rats (washes from 5 rats) using a cytocentrifuge (Cytospin®). The slides are fixed using an aerosol cytologic fixative (Cytoral®).
Conventional May Grunwaid Giemsa staining is carried out for evaluating the level of inflammation in the groups of rats that received C. albicans alone or combined with the treatment with the Sc I-3856 yeast.
Slides are prepared from the combined vaginal washes and MGG staining is carried out in order to evaluate the appearance of the vaginal epithelial cells, the presence of bacteria and yeasts and the presence of proinflammatory cells.
For cytologic investigation of the vaginal washes, slides are prepared from the combined vaginal washes and MGG staining is carried out.
The appearance of the vaginal epithelial cells, the presence of bacteria and yeasts and the presence of proinflammatory cells are evaluated by observation (results not shown).

[4] = tested on: Candida albicans; assay: Antigen with mannoside structure of C. albicans in combined vaginal washes (ICT strips); type: in vivo, rat; details: combined washes from 5 rats; fluconazole vs untreated infected rats
From the text: Detection of an antigen of C. albicans is useful for diagnosing vaginal candidosis. The antigen comprises a highly immunogenic mannoside structure present in the cell wall of C. albicans. The antigen with mannoside structure is the main antigen present in vaginal infection, it therefore constitutes a useful biomarker for diagnosing […] candidosis.
Another possibility for detecting the presence of the antigen with mannoside structure consists of using ICT strips (Candi Vagi, SR2B). “ICT” is based on capture of the antigen contained in the vaginal secretions using a mouse immunoglobulin IgM directed against the antigen with mannoside structure. The monoclonal antibody recognizes the epitopes of the antigen with mannoside structure for a wide range of Candida species. The monoclonal antibody is conjugated to particles or in a mobile phase and is also applied on a nitrocellulose strip as capture antibody. The ICT stick is put in the suspension of vaginal sample and the samples move by capillary action through the block containing the “MAb-gold” conjugate (Mab for monoclonal antibody). The analysis is performed as described in the publication Marot-Leblond et al., Journal of Clinical Microbiology, 2009.
The antigen with mannoside structure is quantified using non-commercial strips in combined washes from 5 rats.

[5] = tested on: Candida albicans; assay: Rat model of vaginal candidosis: viable C. albicans CFUs in vaginal washes; type: in vivo; set-up: AUC values (D 2-13): unit not given beside the values; details: for number of C. albicans CFUs determined from the washes: fluconazole 50 μg intravaginal 1 h
Method: as §1, §2, §3
The viable colonies of Candida albicans are counted after two days of culture at 30° C. on a selective medium (Chrom-Agar plates, BD). […]
The number of C. albicans (in CFU) is determined from cervico-uterine smears and washes as described above.

Structure (SMILES): OC(Cn1cncn1)(Cn1cncn1)c1ccc(F)cc1F [fluconazole]
- mean growth of the colonies of C. albicans on Chrom-Agar plates (smears) ([1]; day 2): 5.25 CFU
- mean growth of the colonies of C. albicans on Chrom-Agar plates (smears) ([1]; day 5): 25 CFU
- mean growth of the colonies of C. albicans on Chrom-Agar plates (smears) ([1]; day 7): 42 CFU
- mean growth of the colonies of C. albicans on Chrom-Agar plates (smears) ([1]; day 10): 17 CFU
- infection of the vaginal mucosa with C. albicans on day 12 ([1]; day 12, fluconazole): absence of infection with C. albicans; also recorded: prevent infection with Candida albicans completely
- mean growth of the colonies of C. albicans on Chrom-Agar plates (smears) ([1]; day 13): 7 CFU
- mean growth of the colonies of C. albicans on Chrom-Agar plates (smears) ([1]; day 15): 34.45 CFU
- mean growth of the colonies of C. albicans on Chrom-Agar plates (smears) ([1]; day 17): 24.4 CFU
- mean growth of the colonies of C. albicans on Chrom-Agar plates (smears) ([1]; day 20): 8.8 CFU
- mean growth of the colonies of C. albicans on Chrom-Agar plates (smears) ([1]; day 23): 11.8 CFU
- mean growth of the colonies of C. albicans on Chrom-Agar plates (smears) ([1]; day 25): 11.6 CFU
- decrease in the number of viable C. albicans in the vaginal mucosa (AUC) relative to untreated rats ([1]; first 12 days after infection, fluconazole treatment): 36%
- AUC values (D2 to D13) [2]: 236.875
- Difference (AUC D2 to D13 vs C. albicans untreated) [2]: 135.555
- cytology of vaginal washes: inflammatory cells ([3]; day 2, fluconazole): prevents inflammatory infiltration
- cytology of vaginal washes: C. albicans and inflammatory cells ([3]; day 12, fluconazole): not one C. albicans cell is observed and only a few macrophages and neutrophils are present; also recorded: no C. albicans is observed, but some macrophages and neutrophils are observed
- presence of C. albicans on slides of vaginal washes ([3]; day D2 (by context), yeast as prophylactic or therapeutic treatment): presence of C. albicans is observed
- quantity of antigens with mannoside structure [4]: less in the rats treated with fluconazole than in the untreated rats
- decrease in elimination of viable C. albicans (AUC of washes) relative to the untreated rats ([5]; between days 2 and 12, fluconazole): 20%
- number of C. albicans CFUs determined from the washes ([5]; day 2, 24 h, 48 h after infection): 9 CFU
- number of C. albicans CFUs determined from the washes ([5]; day 5, 24 h, 48 h after infection): 53 CFU
- number of C. albicans CFUs determined from the washes ([5]; day 7, 24 h, 48 h after infection): 17 CFU
- number of C. albicans CFUs determined from the washes ([5]; day 10, 24 h, 48 h after infection): 3 CFU
- number of C. albicans CFUs determined from the washes ([5]; day 13, 24 h, 48 h after infection): 1 CFU
- number of C. albicans CFUs determined from the washes ([5]; day 15, 24 h, 48 h after infection): 6 CFU
- number of C. albicans CFUs determined from the washes ([5]; day 17, 24 h, 48 h after infection): 7 CFU
- number of C. albicans CFUs determined from the washes ([5]; day 20, 24 h, 48 h after infection): 3 CFU
- number of C. albicans CFUs determined from the washes ([5]; day 23, 24 h, 48 h after infection): 1 CFU
- number of C. albicans CFUs determined from the washes ([5]; day 25, 24 h, 48 h after infection): 4 CFU
- percentage of CFUs of C. albicans released/detected in washes in the first phase (D2-D5) ([5]; days 2 to 5, fluconazole): 73%
- increase of the elimination of viable C. albicans ([5]; first week after infection, fluconazole): 45%
- peak intensity of release of Candida in washes ([5]; fluconazole, first 8 days after infection): 5 days
- AUC values (D 2-13) ([5]; washes, fluconazole 50 μg 1 h, 24 h, 48 h after infection): 199
